In series [1] the target is T1, clostripain (Hathewaya histolytica, UniProt P09870).
T1 construct: This protease is a heterodimer; purchased Worthington
Put plainly: Effect of organic solvent on clostripain proteolytic activity (N-Bz-Phe-Val-Arg-p-nitroanilide substrate, photometric initial rates). The format is biochemical. As to conditions: varying amounts of organic solvent, otherwise as Table III. The method, then: A substrate solution (1 mL) of 2 mg N-Bz-Phe-Val-Arg-p-nitroanilide in 2.5 mM dithiothreitol, 1 mM calcium chloride, 50 mM Tricine buffer at pH 8.5 was incubated at room temperature with 10 μg of clostripain, in an aqueous solution containing 10% (v/v) of organic solvent. Initial rates were determined by photometric detection of the liberated […].
These reactions were repeated in the presence of varying amounts of organic solvent, and optimal concentrations for proteolytic activity were determined for propylene carbonate (10%), N,N-dimethylformamide (20%), trifluoroethanol (20%), and acetonitrile (20%).

Series [2] concerns the target T1, clostripain. Put plainly: Inhibition of clostripain amidation activity by organic solvent (GLP-1(7-36)Ala-Phe-Ala-Hse substrate, HPLC). The format is biochemical. To be noted: 2 M ammonium acetate, pH 10.4, 45° C., maximal attained amidation level. The method, then: Maximal attained amidation level in the presence of various organic solvents was determined with GLP-1(7-36)Ala-Phe-Ala-Hse (SEQ ID NO:1; 2 mg/mL) in 2.5 mM DTT, 1 mM calcium chloride, 2 M ammonium acetate, pH 10.4, at 45° C., with 20 μg clostripain in a 1 mL reaction. Aliquots of the reaction mixture were removed at regular time intervals, quenched with acetic acid and assayed by HPLC analysis on a reverse phase HPLC column.

The format of series [3] is physicochemical.
In series [4] the test system is GLP-1(7-36)Ala-Phe-Ala-Hse. Put plainly: Amidation by other Arg-specific proteases. The format is biochemical. As to conditions: 1 M ammonium hydroxide, pH 10 and 8.5 (cathepsin B also pH 5.5), enzyme:substrate 1:50 to 1:100. As for the experimental part:
GLP-1(7-36)Ala-Phe-Ala-Hse (SEQ ID NO:1) (between 0.5 and 2 mg/mL) was dissolved in 1 M ammonium hydroxide at pH 10 and 8.5 and incubated individually with six different proteolytic enzymes, five of which have a specificity to cleave peptides at the carboxyl peptide bond of arginine residues, similar to that of clostripain. These included trypsin, thrombin, cathepsin B (also tested at pH 5.5), coagulation factor Xa, plasmin and papain. Papain is a thiol protease, albeit one which is not specific to arginyl bonds. […] Enzyme:substrate ratios were between 1:50 to 1:100 and protease specific additives were added where appropriate (e.g., calcium chloride).

`CC#N` [Acetonitrile]: the “optimal concentration for proteolytic activity” value (“optimal concentration” for short) on clostripain [1] was 20%. In addition, the “Extent of amidation (% of substrate converted)” value at clostripain [2] (20% organic solvent) was determined as 18%.

For `CN(C)C=O` [Dimethylformamide, N,N-dimethylformamide], the “optimal concentration” value on clostripain [1] is given as 20%.

On to `CC1COC(=O)O1` (centres unmarked) [Propylene carbonate], for which, on clostripain [1], the “optimal concentration” value is reported as 10%. Moreover, the “Extent of amidation (% of substrate converted)” value on clostripain [2] (10% organic solvent) is on record as 29%.

For `OCC(F)(F)F` [Trifluoroethanol], the “Extent of amidation (% of substrate converted)” value at clostripain [2] (20% organic solvent) stood at 9%.

Take “His-Ala-Glu-Gly-Thr-Phe-Thr-Ser-Asp- Val-Ser-Ser-Tyr-Leu-Glu-Gly-Gln-Ala-Ala-Lys-Glu-Phe-Ile-Ala-Trp-Leu- Val-Lys-Gly-Arg-NH2 [GLP-1(7-36)NH2]”: the “formation of D-contaminants” value in series [3] (in water, pH about 4 to 8.4, −20° C. to 45° C., similar period of time) is recorded as “essentially no formation of D-contaminants”. The degradation in series [3] (pH 9.4) is recorded as 9%. The “degradation into D-contaminants” value in series [3] (pH 10.5) is “a substantial amount of the peptide was degraded into D-contaminants”.

On to thrombin, for which the “production of GLP-1(7-36)NH2 (reversed phase chromatography)” value (“production of GLP-1(7-36)NH2” below) in series [4] is on record as “None of these proteases produced any GLP-1(7-36)NH2”.

As to trypsin, in series [4], the “production of GLP-1(7-36)NH2” value is listed as “None of these proteases produced any GLP-1(7-36)NH2”.

B1: plasmin: proteolytic enzyme cleaving at the carboxyl peptide bond of arginine residues (protein, UniProt P00747 20-580; P00747 581-810, looked up)
Plasmin heavy chain A: EPLDDYVNTQGASLFSVTKKQLGAGSIEECAAKCEEDEEFTCRAFQYHSKEQQCVIMAENRKSSIIIRMRDVVLFEKKVYLSECKTGNGKNYRGTMSKTKNGITCQKWSSTSPHRPRFSPATHPSEGLEENYCRNPDNDPQGPWCYTTDPEKRYDYCDILECEEECMHCSGENYDGKISKTMSGLECQAWDSQSPHAHGYIPSKFPNKNLKKNYCRNPDRELRPWCFTTDPNKRWELCDIPRCTTPPPSSGPTYQCLKGTGENYRGNVAVTVSGHTCQHWSAQTPHTHNRTPENFPCKNLDENYCRNPDGKRAPWCHTTNSQVRWEYCKIPSCDSSPVSTEQLAPTAPPELTPVVQDCYHGDGQSYRGTSSTTTTGKKCQSWSSMTPHRHQKTPENYPNAGLTMNYCRNPDADKGPWCFTTDPSVRWEYCNLKKCSGTEASVVAPPPVVLLPDVETPSEEDCMFGNGKGYRGKRATTVTGTPCQDWAAQEPHRHSIFTPETNPRAGLEKNYCRNPDGDVGGPWCYTTNPRKLYDYCDVPQCAAPSFDCGKPQVEPKKCPGR
Plasmin light chain B: VVGGCVAHPHSWPWQVSLRTRFGMHFCGGTLISPEWVLTAAHCLEKSPRPSSYKVILGAHQEVNLEPHVQEIEVSRLFLEPTRKDIALLKLSSPAVITDKVIPACLPSPNYVVADRTECFITGWGETQGTFGAGLLKEAQLPVIENKVCNRYEFLNGRVQSTELCAGHLAGGTDSCQGDSGGPLVCFEKDKYILQGVTSWGLGCARPNKPGVYVRVSRFVTWIEGVMRNN
modifications: Plasmin
notes: proteolytic enzyme cleaving at the carboxyl peptide bond of arginine residues
For B1, the “production of GLP-1(7-36)NH2” value in series [4] is given as “None of these proteases produced any GLP-1(7-36)NH2”.

B2: clostripain: extracellular thiol endoprotease from Clostridia, high specificity for Arg-Xaa peptide linkages (protein, UniProt P09870 51-181; P09870 191-526, looked up)
Clostripain light chain: NKNQKVTIMYYCDADNNLEGSLLNDIEEMKTGYKDSPNLNLIALVDRSPRYSSDEKVLGEDFSDTRLYKIEHNKANRLDGKNEFPEISTTSKYEANMGDPEVLKKFIDYCKSNYEADKYVLIMANHGGGAR
Clostripain heavy chain: AICWDDSNLDKNGEADCLYMGEISDHLTEKQSVDLLAFDACLMGTAEVAYQYRPGNGGFSADTLVASSPVVWGPGFKYDKIFDRIKAGGGTNNEDDLTLGGKEQNFDPATITNEQLGALFVEEQRDSTHANGRYDQHLSFYDLKKAESVKRAIDNLAVNLSNENKKSEIEKLRGSGIHTDLMHYFDEYSEGEWVEYPYFDVYDLCEKINKSENFSSKTKDLASNAMNKLNEMIVYSFGDPSNNFKEGKNGLSIFLPNGDKKYSTYYTSTKIPHWTMQSWYNSIDTVKYGLNPYGKLSWCKDGQDPEINKVGNWFELLDSWFDKTNDVTGGVNHYQW
As for B2, the “production of GLP-1(7-36)NH2” value in series [4] is “produced measureable GLP-1(7-36)NH2”.

B3: papain: thiol protease which is not specific to arginyl bonds (protein, UniProt P00784 134-345, looked up)
Papain: IPEYVDWRQKGAVTPVKNQGSCGSCWAFSAVVTIEGIIKIRTGNLNEYSEQELLDCDRRSYGCNGGYPWSALQLVAQYGIHYRNTYPYEGVQRYCRSREKGPYAAKTDGVRQVQPYNEGALLYSIANQPVSVVLEAAGKDFQLYRGGIFVGPCGNKVDHAVAAVGYGPNYILIKNSWGTGWGENGYIRIKRGTGNSYGVCGLYTSSFYPVKN
For B3, the “production of GLP-1(7-36)NH2” value in series [4] was “None of these proteases produced any GLP-1(7-36)NH2”.

The values above are taken from patent US6461834B1, “Clostripain catalyzed amidation of peptides” (Bionebraska, Inc., priority 1998, dated 2002).
